The assay has as its system P388 leukemia ip, CD2F1 mice, survival T/C. Kind of assay: NCI In Vivo Anticancer Drug Screen. Data for tumor model P388 Leukemia (intraperitoneal) in CD2F1 (CDF1) mice. Conditions: endpoint: median survival time, higher = longer survival. A digest of the protocol:
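Mice carrying the transplanted tumor received test compound or vehicle. Survival was recorded in each group, and the value is the treated-group measurement divided by that of the vehicle-treated control group.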

The mark [1] stands for this setting: dose: 50.0 mg/kg/injection, schedule: Q01DX009 (ip), vehicle: Klucel (hydroxypropylcellulose) (HPC).
The mark [2] stands for this setting: dose: 200.0 mg/kg/injection, schedule: Q01DX009 (ip), vehicle: Klucel (hydroxypropylcellulose) (HPC).
Setting [3] is: dose: 12.5 mg/kg/injection, schedule: Q01DX009 (ip), vehicle: distilled water + Tween-80.
Where [4] appears, read: dose: 25.0 mg/kg/injection, schedule: Q04DX003 (ip), vehicle: saline.
Setting [5] is: dose: 50.0 mg/kg/injection, schedule: Q04DX003 (ip), vehicle: saline.
Setting [6] is: dose: 100.0 mg/kg/injection, schedule: Q04DX003 (ip), vehicle: saline.
The mark [7] stands for this setting: dose: 200.0 mg/kg/injection, schedule: Q04DX003 (ip), vehicle: saline.
[8] abbreviates: dose: 400.0 mg/kg/injection, schedule: Q04DX003 (ip), vehicle: saline.
Setting [9] is: dose: 12.5 mg/kg/injection, schedule: Q01DX009 (ip), vehicle: saline.
The mark [10] stands for this setting: dose: 25.0 mg/kg/injection, schedule: Q01DX009 (ip), vehicle: saline.
Setting [11] is: dose: 100.0 mg/kg/injection, schedule: Q01DX009 (ip), vehicle: Klucel (hydroxypropylcellulose) (HPC).
Where [12] appears, read: dose: 60.0 mg/kg/injection, schedule: Q01DX005 (ip), vehicle: saline with Tween-80.
The mark [13] stands for this setting: dose: 240.0 mg/kg/injection, schedule: Q01DX005 (ip), vehicle: saline with Tween-80.

Several values for one entry are separate records, joined by “and”; a condition that tells them apart may be missing. Identical values can stand only once. Toxic doses and inconclusive results are not listed.

Regarding `CCSc1nc2ccc(Nn3nnnc3-c3ccccc3)cc2s1`, the T/C is 105 % of control and 94 % of control (dose: 1.56 mg/kg/injection, schedule: Q01DX009 (ip), vehicle: Klucel (hydroxypropylcellulose) (HPC)); 99 % of control and 100 % of control (dose: 3.12 mg/kg/injection, schedule: Q01DX009 (ip), vehicle: Klucel (hydroxypropylcellulose) (HPC)); 93 % of control (dose: 6.25 mg/kg/injection, schedule: Q01DX009 (ip), vehicle: Klucel (hydroxypropylcellulose) (HPC)); 89 % of control and 95 % of control (dose: 12.5 mg/kg/injection, schedule: Q01DX009 (ip), vehicle: Klucel (hydroxypropylcellulose) (HPC)); 93 % of control under setting [1]; 92 % of control under setting [2].
Take `Cc1cc(-c2ccccc2)[s+]s1`: the T/C runs as follows: under setting [3], 101 % of control; (dose: 25.0 mg/kg/injection, schedule: Q01DX009 (ip), vehicle: distilled water + Tween-80) 115 % of control; (dose: 50.0 mg/kg/injection, schedule: Q01DX009 (ip), vehicle: distilled water + Tween-80) 117 % of control; (dose: 100.0 mg/kg/injection, schedule: Q01DX009 (ip), vehicle: distilled water + Tween-80) 111 % of control; (dose: 200.0 mg/kg/injection, schedule: Q01DX009 (ip), vehicle: distilled water + Tween-80) 117 % of control.
With `CC12CCC(=O)N1C(C(=O)O)CS2` (stereo not drawn), the T/C is, setting by setting: (dose: 12.5 mg/kg/injection, schedule: Q04DX003 (ip), vehicle: saline) 119 % of control; under setting [4], 99 % of control and 106 % of control; under setting [5], 102 % of control and 109 % of control and 97 % of control; under setting [6], 98 % of control and 123 % of control and 97 % of control; under setting [7], 107 % of control; under setting [8], 91 % of control.
On to `CC1(O)C=CP(C)(=O)C1` (stereo not drawn), for which the T/C was 108 % of control under setting [9]; 110 % of control under setting [10]; 111 % of control (dose: 50.0 mg/kg/injection, schedule: Q01DX009 (ip), vehicle: saline); 100 % of control (dose: 100.0 mg/kg/injection, schedule: Q01DX009 (ip), vehicle: saline); 86 % of control (dose: 200.0 mg/kg/injection, schedule: Q01DX009 (ip), vehicle: saline).
On to `Nc1cc2c(cc1O)C1C(C3C2C2(Cl)C(Cl)C(Cl)C3(Cl)C2(Cl)Cl)C2(Cl)C(Cl)C(Cl)C1(Cl)C2(Cl)Cl` (stereo not drawn), for which the T/C runs as follows: under setting [1], 100 % of control; under setting [11], 100 % of control; under setting [2], 96 % of control.
In the case of `C[C@@H]1C[C@H]2[C@@H]3CCC4=CC(=O)C=C[C@]4(C)[C@@]3(F)[C@@H](O)C[C@]2(C)[C@@]1(O)C(=O)CO`, the T/C runs as follows: (dose: 25.0 mg/kg/injection, schedule: Q01DX009 (ip), vehicle: saline sonified) 100 % of control; (dose: 50.0 mg/kg/injection, schedule: Q01DX009 (ip), vehicle: saline sonified) 90 % of control.
As for `CSC(=S)c1ccc(NS(=O)(=O)c2ccccc2)cc1`, the T/C runs as follows: under setting [6], 100 % of control; under setting [7], 106 % of control; under setting [8], 105 % of control.
For `O=[N+]([O-])c1cc(I)c(O)c(/C=N/NS(=O)(=O)c2ccc(F)cc2)c1`, the T/C is, setting by setting: under setting [12], 104 % of control; (dose: 120.0 mg/kg/injection, schedule: Q01DX005 (ip), vehicle: saline with Tween-80) 105 % of control; under setting [13], 101 % of control.
For `OCC1=C(CO)CC2=C(CC=CC2)C1`, the T/C (dose: 50.0 mg/kg/injection, schedule: Q01DX005 (ip), vehicle: Klucel (hydroxypropylcellulose) (HPC)) is 100 % of control; the T/C (dose: 100.0 mg/kg/injection, schedule: Q01DX005 (ip), vehicle: Klucel (hydroxypropylcellulose) (HPC)) was 99 % of control; the T/C (dose: 200.0 mg/kg/injection, schedule: Q01DX005 (ip), vehicle: Klucel (hydroxypropylcellulose) (HPC)) is 97 % of control.
Regarding `CSc1nc(C(N)=O)c(N)c(=O)[nH]1`, the T/C is 109 % of control under setting [1], 110 % of control under setting [11] and 117 % of control under setting [2].
Consider `CNC(=O)OCc1c(COC(=O)NC)c(-c2ccc(Cl)cc2)n(C)c1C`, for which the T/C was 155 % of control (dose: 6.25 mg/kg/injection, schedule: Q01DX009 (ip), vehicle: distilled water + Tween-80); 150 % of control and 153 % of control under setting [3].
For `CCc1cccc(NC(=O)SCc2ccccc2)c1`, the T/C (dose: 50.0 mg/kg/injection, schedule: Q01DX009 (ip), vehicle: saline with Tween-80) is 94 % of control and the T/C (dose: 100.0 mg/kg/injection, schedule: Q01DX009 (ip), vehicle: saline with Tween-80) was 98 % of control.
On to `OCC1c2ccc(Cl)cc2Nc2ccc(Cl)cc21` (stereo not drawn), for which the T/C (dose: 100.0 mg/kg/injection, schedule: Q01DX001 (ip), vehicle: saline with Tween-80) was 104 % of control; the T/C (dose: 200.0 mg/kg/injection, schedule: Q01DX001 (ip), vehicle: saline with Tween-80) was 95 % of control; the T/C (dose: 400.0 mg/kg/injection, schedule: Q01DX001 (ip), vehicle: saline with Tween-80) is 100 % of control.
As for `CCCCCCCCOC(=O)c1[nH]cnc1/N=N\N(C)C`, the T/C was 109 % of control (dose: 100.0 mg/kg/injection, schedule: Q04DX003 (ip), vehicle: Klucel (hydroxypropylcellulose) (HPC)); 113 % of control (dose: 200.0 mg/kg/injection, schedule: Q04DX003 (ip), vehicle: Klucel (hydroxypropylcellulose) (HPC)); 104 % of control (dose: 400.0 mg/kg/injection, schedule: Q04DX003 (ip), vehicle: Klucel (hydroxypropylcellulose) (HPC)).
With `O=[N+]([O-])O.[Cu+2].[NH-]CC[NH-].[NH-]CC[NH-]`, the T/C (dose: 3.12 mg/kg/injection, schedule: Q01DX009 (ip), vehicle: saline) was 100 % of control; the T/C (dose: 6.25 mg/kg/injection, schedule: Q01DX009 (ip), vehicle: saline) was 100 % of control; the T/C under setting [9] is 100 % of control; the T/C under setting [10] is 92 % of control.
With `CC1(C)N=C(N)N=C(N)N1c1ccccc1`, the T/C is 104 % of control under setting [4] and 112 % of control under setting [5].
`COc1cc2c(cc1O)C(C)Cc1cc3c(cc1N(C)CC2)OCO3` (stereo not drawn): the T/C was 106 % of control (dose: 100.0 mg/kg/injection, schedule: Q04DX002 (ip), vehicle: saline); 113 % of control (dose: 200.0 mg/kg/injection, schedule: Q04DX002 (ip), vehicle: saline); 103 % of control (dose: 400.0 mg/kg/injection, schedule: Q04DX002 (ip), vehicle: saline).
As to `COc1ccc2c(c1)nc(-c1ccccn1)n2CCc1ccccn1`, the T/C was 113 % of control (dose: 50.0 mg/kg/injection, schedule: Q04DX002 (ip), vehicle: Klucel (hydroxypropylcellulose) (HPC)); 101 % of control (dose: 100.0 mg/kg/injection, schedule: Q04DX002 (ip), vehicle: Klucel (hydroxypropylcellulose) (HPC)); 104 % of control (dose: 200.0 mg/kg/injection, schedule: Q04DX002 (ip), vehicle: Klucel (hydroxypropylcellulose) (HPC)); 101 % of control (dose: 400.0 mg/kg/injection, schedule: Q04DX002 (ip), vehicle: Klucel (hydroxypropylcellulose) (HPC)).
`NC(=O)C/C(N)=N/O`: the T/C runs as follows: (dose: 50.0 mg/kg/injection, schedule: Q01DX005 (ip), vehicle: saline) 98 % of control; (dose: 100.0 mg/kg/injection, schedule: Q01DX005 (ip), vehicle: saline) 101 % of control; (dose: 200.0 mg/kg/injection, schedule: Q01DX005 (ip), vehicle: saline) 100 % of control.
As for `CCOc1cc2c(cc1Cc1c(OC)cc(OC)cc1OC)OCO2`, the T/C under setting [12] was 90 % of control and the T/C under setting [13] is 99 % of control.
Regarding `O=C1NC(=O)C2(C(=O)c3cccc4cccc2c34)N1c1ccccc1` (stereo not drawn), the T/C runs as follows: (dose: 50.0 mg/kg/injection, schedule: Q01DX009 (ip), vehicle: distilled water + alcohol) 94 % of control; (dose: 100.0 mg/kg/injection, schedule: Q01DX009 (ip), vehicle: distilled water + alcohol) 102 % of control; (dose: 200.0 mg/kg/injection, schedule: Q01DX009 (ip), vehicle: distilled water + alcohol) 100 % of control.
Regarding `CCN(CC)c1ccc(/C=N\Nc2ccc([N+](=O)[O-])cn2)cc1`, the T/C is 93 % of control (dose: 50.0 mg/kg/injection, schedule: Q01DX005 (ip), vehicle: saline with Tween-80); 90 % of control (dose: 100.0 mg/kg/injection, schedule: Q01DX005 (ip), vehicle: saline with Tween-80); 87 % of control (dose: 200.0 mg/kg/injection, schedule: Q01DX005 (ip), vehicle: saline with Tween-80).

These data come from PubChem BioAssay AID330 (DTP/NCI, 2004).
